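Tested at 5 concentrations; 48 h exposure; 96-well plates; endpoints linearly interpolated, else capped at highest concentration. GI50 marks 50% less growth. TGI: total growth inhibition.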
How the values were obtained:
Experiment in all cases: DTP human tumour cell line panel, 48 h
HCT-116 colon = tested on: HCT-116 colon
NCI-H460 lung = tested on: NCI-H460 lung
KM12 colon = tested on: KM12 colon
EKVX NSCLC = tested on: EKVX NSCLC
OVCAR-3 ovarian = tested on: OVCAR-3 ovarian
K-562 leukemia = tested on: K-562 leukemia
OVCAR-5 ovarian = tested on: OVCAR-5 ovarian
MCF7 breast = tested on: MCF7 breast
SNB-75 CNS = tested on: SNB-75 CNS

| Compound | TGI (HCT-116 colon) [µM] | TGI (NCI-H460 lung) [µM] | TGI (KM12 colon) [µM] | TGI (EKVX NSCLC) [µM] | TGI (OVCAR-3 ovarian) [µM] | TGI (K-562 leukemia) [µM] | TGI (OVCAR-5 ovarian) [µM] | TGI (MCF7 breast) [µM] | TGI (SNB-75 CNS) [µM] | GI50 (HCT-116 colon) [µM] | GI50 (NCI-H460 lung) [µM] | GI50 (KM12 colon) [µM] | GI50 (EKVX NSCLC) [µM] | GI50 (OVCAR-3 ovarian) [µM] | GI50 (K-562 leukemia) [µM] | GI50 (OVCAR-5 ovarian) [µM] | GI50 (MCF7 breast) [µM] | GI50 (SNB-75 CNS) [µM] |
| --- | --- | --- | --- | --- | --- | --- | --- | --- | --- | --- | --- | --- | --- | --- | --- | --- | --- | --- |
| CCOC(=O)c1cc2c(C(=O)c3ccc([N+](=O)[O-])cc3)c(C(C)=O)ccc2[nH]1 | > 100 | > 100 | > 100 | > 100 | > 100 | > 100 | > 100 | > 100 | 32.9 | – | – | – | – | – | – | – | – | – |
| COC(=O)C(Cc1ccccc1)NP(=O)(O)OCC1OC(n2cc(F)c(=O)[nH]c2=O)CC1O (stereo unspecified) | > 100 | > 100 | > 100 | > 100 | > 100 | > 100 | > 100 | > 100 | > 100 | – | – | – | – | – | – | – | – | – |
| Nc1ccccc1CC(O)C(=O)O (stereo unspecified) | > 100 | > 100 | > 100 | > 100 | > 100 | > 100 | > 100 | > 100 | > 100 | – | – | – | – | – | – | – | – | – |
| CC1(C)[C@H]2CC[C@]1(C)[C@H](OC(=O)NNC(=O)O[C@@H]1C[C@@H]3CC[C@@]1(C)C3(C)C)C2 | 34.5 | 28.6 | 37.3 | 31.2 | 25.6 | 17 | 34.1 | 26.4 | 28.1 | – | – | – | – | – | – | – | – | – |
| O=c1oc2ccccc2cc1-c1cn2cc(Cl)ccc2n1 | 14.7 | 13.6 | 12.1 | > 100 | 2.51 | > 100 | 33.3 | 2.12 | > 21.2 | – | – | – | – | – | – | – | – | – |
| O=c1[nH]nc(-c2ccccc2)n1/N=C/c1cccnc1 | > 100 | > 100 | > 100 | > 100 | > 100 | > 100 | > 100 | > 100 | > 100 | – | – | – | – | – | – | – | – | – |
| COc1ccc2c(c1)c(CC(=O)O)c(C)n2C(=O)c1ccc(Cl)cc1 | > 100 | > 100 | > 100 | > 100 | > 100 | > 100 | > 100 | > 100 | > 100 | – | – | – | – | – | – | – | – | – |
| O=C(OCCN=c1c2ccccc2ccc2ccccc12)c1ccc([N+](=O)[O-])cc1 | > 100 | > 100 | > 100 | > 100 | > 100 | > 100 | > 100 | > 100 | > 100 | – | – | – | – | – | – | – | – | – |
| C(CCCCc1nnc(N2CCCCC2)o1)CCCc1nnc(N2CCCCC2)o1 | > 100 | > 100 | > 100 | > 100 | > 100 | > 100 | > 100 | > 100 | > 100 | – | – | – | – | – | – | – | – | – |
| O=C(O)c1ccn(-c2cccc(-n3ccc(C(=O)O)n3)n2)n1 | > 100 | > 100 | > 100 | > 100 | > 100 | > 100 | > 100 | > 100 | > 100 | – | – | – | – | – | – | – | – | – |
| Nc1ncnc2c1nnn2C1CCC(CP(=O)(O)O)C1 (stereo unspecified) | > 100 | > 100 | > 100 | > 100 | > 100 | > 100 | > 100 | > 100 | > 100 | – | – | – | – | – | – | – | – | – |
| O=C1/C(=N\S(=O)(=O)c2ccccc2)C([n+]2ccc(Cc3ccccc3)cc2)=C([O-])c2ccccc21 | 2.46 | 2.22 | 4.7 | 3.27 | 2.2 | > 100 | 3.49 | 2.12 | 2.64 | – | – | – | – | – | – | – | – | – |
| COc1c(O)cc(O)c2c(=O)cc(-c3ccccc3)oc12 | 78.4 | > 100 | > 100 | > 100 | 72.5 | > 100 | > 100 | > 100 | > 100 | – | – | – | – | – | – | – | – | – |
| CC(=O)c1c(C(F)(F)F)n([O-])c2cc(Cl)c(Cl)cc2[n+]1=O | 1.61 | 0.852 | 0.403 | 2.89 | 3.19 | 3.42 | 3.29 | 1.52 | 2.25 | – | – | – | – | – | – | – | – | – |
| O=C(Nc1nc2ccccc2s1)c1cc([N+](=O)[O-])ccc1Cl | > 100 | > 59.4 | > 48.1 | > 100 | > 82.5 | > 100 | > 100 | > 22.6 | > 100 | – | – | – | – | – | – | – | – | – |
| CN1CCN(CCCBr)CC1 | > 100 | > 100 | > 100 | > 100 | > 100 | > 100 | > 100 | > 100 | > 100 | – | – | – | – | – | – | – | – | – |
| COc1ccc(NC(C)=O)cc1N1C(=O)/C(=C\c2cc(OC)c(OC)c(OC)c2)SC1c1ccccc1 (stereo unspecified) | > 100 | > 100 | > 100 | > 100 | > 100 | > 100 | > 100 | > 100 | > 100 | – | – | – | – | – | – | – | – | – |

| Compound | TGI (HCT-116 colon) [µM] | TGI (NCI-H460 lung) [µM] | TGI (KM12 colon) [µM] | TGI (EKVX NSCLC) [µM] | TGI (OVCAR-3 ovarian) [µM] | TGI (K-562 leukemia) [µM] | TGI (OVCAR-5 ovarian) [µM] | TGI (MCF7 breast) [µM] | TGI (SNB-75 CNS) [µM] | GI50 (HCT-116 colon) [µM] | GI50 (NCI-H460 lung) [µM] | GI50 (KM12 colon) [µM] | GI50 (EKVX NSCLC) [µM] | GI50 (OVCAR-3 ovarian) [µM] | GI50 (K-562 leukemia) [µM] | GI50 (OVCAR-5 ovarian) [µM] | GI50 (MCF7 breast) [µM] | GI50 (SNB-75 CNS) [µM] |
| --- | --- | --- | --- | --- | --- | --- | --- | --- | --- | --- | --- | --- | --- | --- | --- | --- | --- | --- |
| CC1(C)CC(C)(C)C1=NNC(N)=O | > 100 | > 100 | > 100 | > 100 | > 100 | > 100 | > 100 | > 100 | > 100 | – | – | – | – | – | – | – | – | – |
| OC(CCNCc1ccccc1)c1ccc2ccccc2c1 (stereo unspecified) | 47.1 | 35.1 | 31.7 | > 100 | 29.5 | 50.9 | 75.4 | 54.3 | 75.6 | – | – | – | – | – | – | – | – | – |
| COc1cc(C2c3cc4c(cc3OC(NNC(N)=O)C2C)OCO4)cc(OC)c1O (stereo unspecified) | > 56.5 | > 100 | > 69.9 | > 100 | 10.1 | > 100 | > 100 | > 55 | > 100 | – | – | – | – | – | – | – | – | – |
| COc1ccc(C)cc1Nc1nnc(-c2ccccc2N)s1 | > 100 | > 100 | > 100 | 90.5 | > 100 | > 100 | > 100 | > 100 | > 100 | – | – | – | – | – | – | – | – | – |
| C/C=C(/C)C(=O)O[C@H](C[C@@H](C)[C@H]1CC(c2ccoc2)OC1=O)[C@@]1(C)C(=O)CCC2O[C@]21C (stereo partly specified) | > 100 | > 100 | > 100 | > 100 | > 100 | > 100 | > 100 | > 100 | > 100 | – | – | – | – | – | – | – | – | – |
| O=c1ccn(CC2(CO)CC(Cc3ccccc3)C2)c(=O)[nH]1 (stereo unspecified) | > 100 | > 100 | > 100 | > 100 | > 100 | > 100 | > 100 | > 100 | > 100 | – | – | – | – | – | – | – | – | – |
| O=C(O)c1nc(-c2ccccc2)[nH]c1C(=O)O | 16 | 29.2 | 14.6 | 33 | 26.4 | 15.3 | 31.7 | 15.7 | 33.6 | – | – | – | – | – | – | – | – | – |
| CCCCCCCCCCCCCCCCCCNc1ccn(C2OC(COP(=O)(O)OCC3OC(n4cc(F)c(NCCCCCCCCCCCCCCCCCC)nc4=O)CC3O)C(O)C2O)c(=O)n1 (stereo unspecified) | > 100 | > 100 | > 100 | > 100 | > 100 | > 100 | > 100 | > 100 | > 100 | – | – | – | – | – | – | – | – | – |
| COC(=O)[C@H]1CO[C@H]2C/C(C)=C/CC/C(C)=C/CC[C@@]3(C)O[C@@H]3C[C@H]21 | 24.9 | 21.9 | 18.4 | > 50 | 47.3 | 16.1 | > 50 | > 50 | 39.2 | – | – | – | – | – | – | – | – | – |
| CCNC(=O)c1cc(/C=C/c2ccc([N+](=O)[O-])o2)nc2ccccc12 | > 100 | 17.4 | > 100 | > 100 | > 100 | > 100 | > 100 | > 100 | 63.8 | – | – | – | – | – | – | – | – | – |
| C=C(CO[Si](C)(C)C(C)(C)C)C(C)=O | 27 | > 100 | > 100 | > 100 | 38.1 | > 52.4 | 86.2 | 76.7 | 62.3 | – | – | – | – | – | – | – | – | – |
| C=C(C)C(O)C(O)c1c(OC)ccc2ccc(=O)oc12 (stereo unspecified) | > 100 | > 100 | > 100 | > 100 | > 100 | > 100 | > 100 | > 100 | > 100 | – | – | – | – | – | – | – | – | – |
| Cc1c2c(n(CCc3ccc(Cl)cc3)c1C)NC(c1ccccc1)C(C#N)S2(=O)=O (stereo unspecified) | > 100 | > 100 | > 100 | > 100 | > 100 | 47.8 | > 100 | > 60.1 | > 100 | – | – | – | – | – | – | – | – | – |
| Cc1ccc2c(c1C)C(=O)/C(=C/c1ccccc1C(=O)O)C2 | > 100 | > 100 | > 100 | > 100 | > 100 | > 100 | > 100 | > 100 | > 100 | – | – | – | – | – | – | – | – | – |
| COc1ccc(-n2c(=O)n(C)c(=O)n2-c2ccc(OC)cc2)cc1 | > 100 | > 100 | > 100 | > 100 | > 100 | > 100 | > 100 | > 100 | > 100 | – | – | – | – | – | – | – | – | – |
| Cc1cc(N2CCCC2)nc(N(CCNc2ccnc3cc(Cl)ccc23)Cc2ccco2)n1 | > 100 | > 100 | > 100 | > 100 | 42.3 | > 100 | > 100 | > 100 | 60.7 | 1.91 | 2.99 | 3.86 | 5.7 | 3.4 | 2.26 | 4.93 | 2.91 | 10.7 |
